Source: patent US8101605B2, “SHIP1 modulators and methods related thereto” (Aquinox Pharmaceuticals Inc., priority 2009, dated 2012)

Tests used:
His-hSHIP1 enzyme = molecular target: T1, His-hSHIP1 enzyme (Homo sapiens, UniProt Q92835); assay: His-hSHIP1 phosphatase activity assay (IP4 substrate, Biomol Green); format: biochemical; settings: percentage increase relative to background; concentrations ≦300 μM
T1 sequence (Q92835 1-1189): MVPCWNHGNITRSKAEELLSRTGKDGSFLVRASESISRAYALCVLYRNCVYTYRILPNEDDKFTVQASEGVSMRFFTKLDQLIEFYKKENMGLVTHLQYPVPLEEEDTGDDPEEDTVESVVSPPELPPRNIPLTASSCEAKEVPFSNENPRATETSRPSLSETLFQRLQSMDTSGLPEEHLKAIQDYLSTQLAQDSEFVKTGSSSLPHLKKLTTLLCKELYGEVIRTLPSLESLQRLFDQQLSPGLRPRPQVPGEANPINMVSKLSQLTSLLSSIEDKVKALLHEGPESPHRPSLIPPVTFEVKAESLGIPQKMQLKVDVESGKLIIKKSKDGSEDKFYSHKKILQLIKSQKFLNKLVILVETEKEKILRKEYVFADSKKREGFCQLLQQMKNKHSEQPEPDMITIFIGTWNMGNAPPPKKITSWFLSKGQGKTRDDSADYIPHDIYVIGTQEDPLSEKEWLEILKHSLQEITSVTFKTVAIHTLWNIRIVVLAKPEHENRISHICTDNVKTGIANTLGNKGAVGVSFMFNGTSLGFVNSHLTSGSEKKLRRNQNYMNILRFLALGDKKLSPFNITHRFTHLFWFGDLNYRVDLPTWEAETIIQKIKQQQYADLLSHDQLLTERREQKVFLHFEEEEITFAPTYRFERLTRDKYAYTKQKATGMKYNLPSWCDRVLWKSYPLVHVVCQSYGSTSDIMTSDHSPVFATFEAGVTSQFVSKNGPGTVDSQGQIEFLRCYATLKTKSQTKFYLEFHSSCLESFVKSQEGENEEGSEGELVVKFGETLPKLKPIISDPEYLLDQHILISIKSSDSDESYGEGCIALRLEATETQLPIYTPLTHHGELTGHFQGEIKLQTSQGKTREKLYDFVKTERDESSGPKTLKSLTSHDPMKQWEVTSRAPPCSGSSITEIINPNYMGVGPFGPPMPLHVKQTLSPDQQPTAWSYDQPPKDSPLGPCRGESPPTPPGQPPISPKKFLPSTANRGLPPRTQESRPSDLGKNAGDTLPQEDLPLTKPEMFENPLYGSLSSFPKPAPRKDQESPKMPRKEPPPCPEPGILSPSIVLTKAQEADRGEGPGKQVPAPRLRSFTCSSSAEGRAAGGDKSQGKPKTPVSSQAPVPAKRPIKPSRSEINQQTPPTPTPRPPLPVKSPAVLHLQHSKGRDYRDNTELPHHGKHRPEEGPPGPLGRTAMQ
Outline: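 His-hSHIP1 (15–20 ng) was incubated with IP4 (50 μM final) and compound (0–300 μM final, from 10% ethanol solutions) in 20 mM Tris-HCl, 10 mM MgCl2 pH 7.5, 0.02% Tween 20 for 15 min at 37 °C. Released phosphate was read with Biomol Green at 650 nm. Activation is % increase over background, scored + (<50%), ++ (≥50% but <65%), +++ (≥65%).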

[1] = system: allergen-induced passive cutaneous anaphylaxis; assay: Passive cutaneous anaphylaxis in mice; format: in vivo; settings: oral gavage, doses less than 20 mg/kg
Protocol: The activity of representative compounds on passive cutaneous anaphylaxis in mice was evaluated according to the procedures disclosed by Ovary, J Immunol 81, 355-357, 1958 and Halpern et al., Br J Pharmacol Chemother 20, 389-398, 1963, both of which are incorporated herein by reference in their entirety. To induce a passive cutaneous anaphylaxis, mice underwent intradermal ear inoculation on their right ear with 25 ng in 20 μL of anti-DNP-IgE. The left ears were untreated and served as negative controls. Twenty-four hours after inoculation, all mice were administered test compound by oral gavage (PO). Sixty minutes after oral administration, mice were given a tail vein injection of 2% Evan's blue (0.2 μm filtered, in 200 μL saline) followed by a second tail IV injection of 100 μg DNP-HSA (in 200 μL). Sixty minutes following the DNP-HSA injection, mice were euthanized using CO2 inhalation. Subsequently, ear biopsies were performed by taking four millimetre punches from both ears, which then underwent Evan's Blue extraction using formamide incubation in 96 well plates. Eighty μL of eluents were transferred to flat-bottom 96-well plates and absorbance read using SpectraMax M5 spectrophotometer (Molecular Devices, Sunnyvale, Calif., USA) at 620 nm. Background readings from all samples were taken at 740 nm and subtracted from the 620 nm readings. Data were reported as OD. […] Scoring in Table 4 is expressed as follows: + (1-30% inhibition); ++ (31-50% inhibition); +++ (>50% inhibition).

CC1(C)CCC[C@]2(C)[C@H]3COc4c(O)cc(O)cc4[C@]3(C)CC[C@@H]12 [Compound No. 43, (1R,10R,11S,16S)-1,11,15,15-tetramethyl-8-oxatetracyclo[8.8.0.0^2,7.0^11,16]octadeca-2,4,6-triene-4,6-diol]
Scoring: percent (%) activation of His-hSHIP1 enzyme (His-hSHIP1 enzyme): + (<50%)
Scoring: inhibition of passive cutaneous anaphylaxis [1]: + (1-30% inhibition)
